For the molecule `*/C(=C(/c1ccc(*)cc1)c1ccc(Oc2ccccc2)cc1)c1ccc(Oc2ccccc2)cc1` (repeat unit), the glass transition temperature was determined as 163.00 °C.

On to `*C(=O)c1ccc2c(c1)C(=O)N(c1cccc(OCCOCCOc3cccc(N4C(=O)c5ccc(*)cc5C4=O)c3)c1)C2=O` (repeat unit), for which the glass transition temperature worked out at 155.00 °C.

The molecule `*C(=O)c1ccc2c(c1)C(=O)N(c1cccc(P(=O)(c3ccc(C(F)(F)F)cc3)c3cccc(N4C(=O)c5ccc(*)cc5C4=O)c3)c1)C2=O` (repeat unit) registered a glass transition temperature of 264.00 °C.

With `*C(=O)c1ccc2c(c1)C(=O)N(c1cccc(P(=O)(c3ccc(Oc4ccc(C56CC7CC(CC(C7)C5)C6)cc4)cc3)c3cccc(N4C(=O)c5ccc(*)cc5C4=O)c3)c1)C2=O` (repeat unit), the glass transition temperature stood at 305.00 °C.

In turn, `*C(=O)c1cccc(C(=O)c2ccc3c(c2)C(=O)N(c2cccc(N4C(=O)c5ccc(*)cc5C4=O)c2)C3=O)c1` (repeat unit) came in with a glass transition temperature of 259.50 °C.

In turn, `*CC(COc1ccc(C(C)(C)c2ccc(O*)cc2)cc1)OC(=O)/C=C/c1ccccc1` (repeat unit) gave a glass transition temperature of 100.60 °C.

In the case of `*CC(COc1ccc(C(C)(C)c2ccc(O*)cc2)cc1)OC(=O)CCl` (repeat unit), the glass transition temperature is 65.00 °C.

In the case of `*CC(COc1ccc(C2CCCC(CC)(c3ccc(O*)cc3)C2)cc1)OC(C)=O` (repeat unit), the glass transition temperature is 107.00 °C.

As to `*CC(O)CN(CC(O)COc1ccc(C(C)(C)c2ccc(O*)cc2)cc1)c1ccc(/C=C/c2ccc([N+](=O)[O-])cc2)cc1` (repeat unit), the glass transition temperature stood at 320.00 °C.

On to `*CC(O)CN(CC(O)COc1ccc(C(C)(C)c2ccc(O*)cc2)cc1)c1ccc(/N=N/c2ccc([N+](=O)[O-])cc2)cc1` (repeat unit), for which the glass transition temperature was determined as 59.00 °C.

`*CC(O)CN(CCO)S(=O)(=O)c1ccc(-c2ccc(S(=O)(=O)N(CCO)CC(O)COc3ccc(C(C)(C)c4ccc(O*)cc4)cc3)cc2)cc1` (repeat unit) came in with a glass transition temperature of 76.00 °C.

In turn, `*CC(O)COC(=O)/C=C/C(=O)Oc1ccc(C(C)(C)c2ccc(O*)cc2)cc1` (repeat unit) displayed a glass transition temperature of 32.00 °C.

`*CC(O)COC(=O)CCCCCCC(=O)OCC(O)COc1ccc(C(C)(C)c2ccc(O*)cc2)cc1` (repeat unit) had a glass transition temperature of 35.00 °C.

With `*CC(O)COC(=O)CCCCCCCCCCC(=O)OCC(O)COc1ccc(C(C)(C)c2ccc(O*)cc2)cc1` (repeat unit), the glass transition temperature amounted to 25.00 °C.

`*CC(O)COC(=O)c1cccc(C(=O)OCC(O)COc2ccc(C(C)(C)c3ccc(O*)cc3)cc2)c1` (repeat unit) gave a glass transition temperature of 97.00 °C.

For `*CC(O)COc1ccc(C(=O)c2ccc(OCC(O)COc3ccc(C(C)(C)c4ccc(O*)cc4)cc3)cc2)cc1` (repeat unit), the glass transition temperature came out at 120.00 °C.

Consider `*CC(O)COc1ccc(C(C)(C)C2CCC(C)(c3ccc(O*)cc3)CC2)cc1` (repeat unit), for which the glass transition temperature was found to be 135.00 °C.

Molecule `*CC(O)COc1ccc(C(C)(C)c2ccc(O*)c(Cl)c2)cc1Cl` (repeat unit) yielded a glass transition temperature of 85.00 °C.

`*CC(O)COc1ccc(C(C)(C)c2ccc(OCC(O)COc3ccc(C(=O)Nc4ccc(O*)cc4)cc3)cc2)cc1` (repeat unit) had a glass transition temperature of 127.00 °C.

`*CC(O)COc1ccc(C(C)(C)c2ccc(OCC(O)COc3cccc(NC(=O)CCCC(=O)Nc4cccc(O*)c4)c3)cc2)cc1` (repeat unit): the glass transition temperature was determined as 111.00 °C.

The molecule `*CC(O)COc1ccc(C(C)(C)c2ccc(OCC(O)COc3ccccc3C(=O)Nc3ccc(O*)cc3)cc2)cc1` (repeat unit) showed a glass transition temperature of 121.00 °C.

The molecule `*CC(O)COc1ccc(C(C)(c2ccccc2)c2ccc(O*)cc2)cc1` (repeat unit) showed a glass transition temperature of 115.00 °C.

Regarding `*CC(O)COc1ccc(C2(C)CC(C)(C)c3cc(O*)ccc32)cc1` (repeat unit), the glass transition temperature was 120.00 °C.

`*CC(O)COc1ccc(C2CC(C(C)C)CCC2(C)c2ccc(O*)cc2)cc1` (repeat unit) displayed a glass transition temperature of 175.00 °C.

Take `*CC(O)COc1ccc(C2CCCC(CC)(c3ccc(O*)cc3)C2)cc1` (repeat unit): the glass transition temperature is 140.00 °C.

In turn, `*CC(O)COc1ccc(S(=O)(=O)c2ccc(O*)cc2)cc1` (repeat unit) returned a glass transition temperature of 167.50 °C.

In turn, `*CCOCCOCCN1C(=O)c2ccc(C(=O)Oc3ccc(C(C)(C)c4ccc(OC(=O)c5ccc6c(c5)C(=O)N(*)C6=O)cc4)cc3)cc2C1=O` (repeat unit) displayed a glass transition temperature of 118.00 °C.

Molecule `*Oc1ccc(C(C)(C)c2cc(Cl)c(OC(*)=O)c(Cl)c2)cc1` (repeat unit) registered a glass transition temperature of 186.00 °C.

Regarding `*Oc1ccc(C(C)(C)c2ccc(OC(*)(Oc3ccccc3)Oc3ccccc3)cc2)cc1` (repeat unit), the glass transition temperature worked out at 92.00 °C.

As to `*Oc1ccc(C(C)(C)c2ccc(OC(*)=O)c(C(C)C)c2)cc1C(C)C` (repeat unit), the glass transition temperature was determined as 80.00 °C.

In turn, `*Oc1ccc(C(C)(C)c2ccc(OC(*)=O)c(CC)c2)cc1CC` (repeat unit) had a glass transition temperature of 65.00 °C.

Molecule `*Oc1ccc(C(C)(C)c2ccc(OC(*)=S)cc2)cc1` (repeat unit) gave a glass transition temperature of 140.50 °C.

As for `*Oc1ccc(C(C)(C)c2ccc(OC(=O)Nc3cccc(P(=O)(c4ccccc4)c4cccc(NC(*)=O)c4)c3)cc2)cc1` (repeat unit), the glass transition temperature was 62.00 °C.

The molecule `*Oc1ccc(C(C)(C)c2ccc(OC(=O)OCCCCCOC(*)=O)cc2)cc1` (repeat unit) displayed a glass transition temperature of 49.50 °C.

Take `*Oc1ccc(C(C)(C)c2ccc(OC(=O)OCCCOC(*)=O)cc2)cc1` (repeat unit): the glass transition temperature was determined as 68.10 °C.

As to `*Oc1ccc(C(C)(C)c2ccc(OC(=O)OCCN(CCOC(*)=O)c3ccc4[nH]c5ccccc5c4c3)cc2)cc1` (repeat unit), the glass transition temperature is 90.00 °C.

For `*Oc1ccc(C(C)(C)c2ccc(OC(=O)SCCCCCCSC(*)=O)cc2)cc1` (repeat unit), the glass transition temperature amounted to 58.00 °C.

For `*Oc1ccc(C(C)(C)c2ccc(OC(=O)c3ccc(C(*)=O)cc3)c(C(C)CC)c2)cc1C(C)CC` (repeat unit), the glass transition temperature is 90.00 °C.

In turn, `*Oc1ccc(C(C)(C)c2ccc(OC(=O)c3ccc(C(=O)c4ccc(C(*)=O)cc4)cc3)cc2)cc1` (repeat unit) displayed a glass transition temperature of 194.00 °C.

`*Oc1ccc(C(C)(C)c2ccc(OC(=O)c3ccc([Si](C)(C)c4ccc(C(*)=O)cc4)cc3)cc2)cc1` (repeat unit) gave a glass transition temperature of 180.00 °C.

`*Oc1ccc(C(C)(C)c2ccc(OC(=O)c3ccc([Si](c4ccccc4)(c4ccccc4)c4ccc(C(*)=O)cc4)cc3)cc2)cc1` (repeat unit): the glass transition temperature was found to be 295.00 °C.

The molecule `*Oc1ccc(C(C)(C)c2ccc(OC(=O)c3cccc(C(F)(F)C(F)(F)C(F)(F)c4cccc(C(*)=O)c4)c3)cc2)cc1` (repeat unit) displayed a glass transition temperature of 122.00 °C.

Consider `*Oc1ccc(C(C)(C)c2ccc(OC(=O)c3cccc(Oc4cccc(C(*)=O)c4)c3)cc2)cc1` (repeat unit), for which the glass transition temperature turned out to be 85.00 °C.

`*Oc1ccc(C(C)(C)c2ccc(OC(=O)c3ccccc3-c3ccccc3C(*)=O)cc2)cc1` (repeat unit): the glass transition temperature is 161.00 °C.

In turn, `*Oc1ccc(C(C)(C)c2ccc(OC3(F)C(*)(F)C(F)(F)C3(F)F)cc2)cc1` (repeat unit) displayed a glass transition temperature of 98.00 °C.

In the case of `*Oc1ccc(C(C)(CC)c2ccc(OC(*)=O)c(Cl)c2)cc1Cl` (repeat unit), the glass transition temperature was 142.00 °C.

Turning to `*Oc1ccc(C(C)(c2ccccc2)c2ccc(OC(*)=O)cc2)cc1` (repeat unit), the glass transition temperature amounted to 179.00 °C.

As for `*Oc1ccc(C(CC)(CC)c2ccc(OC(*)=S)cc2)cc1` (repeat unit), the glass transition temperature is 121.00 °C.

Turning to `*Oc1ccc(C(CC)c2ccc(OC(*)=S)cc2)cc1` (repeat unit), the glass transition temperature was 104.00 °C.

`*Oc1ccc(C(CCC)(CCC)c2ccc(OC(*)=O)c(C)c2)cc1C` (repeat unit) yielded a glass transition temperature of 101.00 °C.

In turn, `*Oc1ccc(C(CCCC)(CCCC)c2ccc(OC(*)=O)cc2)cc1` (repeat unit) came in with a glass transition temperature of 113.00 °C.

Molecule `*Oc1ccc(C(c2ccc(OC(*)=S)cc2)C(C)C)cc1` (repeat unit) showed a glass transition temperature of 135.00 °C.

In turn, `*Oc1ccc(C(c2ccc(OC(*)=S)cc2)C(CC)CC)cc1` (repeat unit) came in with a glass transition temperature of 148.00 °C.

Molecule `*Oc1ccc(C2(c3ccc(OC(*)=O)c(C)c3)CC3CC2C2CCCC32)cc1C` (repeat unit) returned a glass transition temperature of 217.00 °C.

For the molecule `*Oc1ccc(C2(c3ccc(OC(*)=S)cc3)CCC(C)CC2)cc1` (repeat unit), the glass transition temperature turned out to be 168.00 °C.

`*Oc1ccc2c(c1)C(C)(c1ccc(OC(*)=O)cc1)CC2(C)C` (repeat unit) yielded a glass transition temperature of 201.70 °C.

In turn, `*Oc1cccc(OC(=O)Oc2ccc(C(C)(C)c3ccc(OC(*)=O)cc3)cc2)c1` (repeat unit) returned a glass transition temperature of 83.10 °C.

For `*c1ccc(C(=O)Oc2ccc(C(C)(C)c3ccc(OC(=O)c4ccc(N5C(=O)CC(SCCOCCSC6CC(=O)N(*)C6=O)C5=O)cc4)cc3)cc2)cc1` (repeat unit), the glass transition temperature was determined as 143.00 °C.

Molecule `*c1ccc(OC(=O)c2ccc(C(=O)Oc3ccc(C4(*)NC(=O)c5ccccc54)cc3)cc2)cc1` (repeat unit) came in with a glass transition temperature of 327.00 °C.

On to `*c1ccc(OC(=O)c2ccc(C(=O)Oc3ccc(C4(*)c5ccccc5C(=O)N4C)cc3)cc2)cc1` (repeat unit), for which the glass transition temperature was 282.00 °C.

For the molecule `*c1ccc(OC(=O)c2cccc(C(=O)Oc3ccc(C4(*)OC(=O)c5ccccc54)cc3C)c2)c(C)c1` (repeat unit), the glass transition temperature is 273.00 °C.

With `*c1ccc2c(c1)C(=O)N(c1cc(C(c3ccc(OC(C)=O)c(N4C(=O)c5ccc(C(*)(C(F)(F)F)C(F)(F)F)cc5C4=O)c3)(C(F)(F)F)C(F)(F)F)ccc1OC(C)=O)C2=O` (repeat unit), the glass transition temperature stood at 266.50 °C.

Source of the values: the PolyMetriX glass transition set.
